Results published in patent US20240390295A1, “METHODS FOR TREATING DEPRESSION” (JANSSEN PHARMACEUTICA NV, priority 2020, published 2024).

Test system: adult patients (aged 18-64 years) with TRD
Experiment: Maximum time to onset of clinician-reported adverse events by AE week 1/week 4 occurrence (Tables 5-16; modal dose 56, modal dose 84, Total)
Assay type: in vivo, human
Experimental: Patients were monitored for >90 minutes after ESK administration at each treatment session, after which time they could leave the clinical site at the clinician's discretion. AEs were monitored and reported, and safety assessments, including clinical laboratory tests and physical examinations, were conducted throughout the study. Clinician-reported AEs were categorized as mild, moderate, or severe based on clinical judgement (Table 1).
Since flexible dosing (ESK 56 or 84 mg) was permitted in the studies and an individual patient's doses could change within dosing timeframes, patients were stratified by modal dose during the respective periods.
The time to onset of the adverse events experienced by patients in Example 2 was analyzed. Tables 5-11 include the summary of specific adverse events by their respective categorized maximum time to Onset (i) across sessions 3-8 during Induction Phase by AE week 1 occurrence (Table 5), (ii) during Optimization Phase by AE week 1 occurrence (Table 6), (iii) during Optimization Phase by AE week 4 occurrence (Table 7), (iv) during Month 3-6 of Maintenance Phase by AE week 1 occurrence (Table 8), (v) Month 3-6 of Maintenance Phase by AE week 4 occurrence (Table 9), (vi) Month 6-12 of Maintenance Phase by AE week 1 occurrence (Table 10), and (vii) during Month 6-12 of Maintenance Phase by AE week 4 (Table 11).
Tables 12-16 include the incidences of clinician-reported blood pressure (Table 12), clinician-reported dissociation (Table 13), dizziness (Table 14), sedation (Table 15), and vertigo (Table 16) spanning week 1 to month 12 using the data of Example 2.

[1] = Based on Week 1, None, Month 3-6
[2] = Based on Week 1, None, Month 6-12
[3] = Based on Week 1, None, Weeks 2-4
[4] = Based on Week 1, Once, Month 3-6
[5] = Based on Week 1, Once, Month 6-12
[6] = Based on Week 1, Once, Weeks 2-4
[7] = Based on Week 1, Twice, Month 2
[8] = Based on Week 1, Twice, Month 3-6
[9] = Based on Week 1, Twice, Month 6-12
[10] = Based on Week 1, Twice, Weeks 2-4
[11] = Based on Week 1, incidence None, Month 2
[12] = Based on Week 1, incidence None, Month 3-6
[13] = Based on Week 1, incidence None, Month 6-12
[14] = Based on Week 1, incidence None, Weeks 2-4
[15] = Based on Week 1, incidence Once, Month 2
[16] = Based on Week 1, incidence Once, Month 3-6
[17] = Based on Week 1, incidence Once, Month 6-12
[18] = Based on Week 1, incidence Once, Weeks 2-4
[19] = Based on Week 1, incidence Twice, Month 2
[20] = Based on Week 1, incidence Twice, Month 3-6
[21] = Based on Week 1, incidence Twice, Month 6-12
[22] = Based on Week 1, incidence Twice, Weeks 2-4
[23] = Based on Week 4, None, Month 3-6

Structure (SMILES): CN[C@]1(c2ccccc2Cl)CCCCC1=O [esketamine, (S)-2-(2-chlorophenyl)-2-(methylamino)cyclohexanone]
- Blood Pressure (clinician): 0-30 m (Based on Week 1, None, Month 2): 1
- Blood Pressure (clinician): 31-60 m (Based on Week 1, None, Month 2): 12
- Blood Pressure (clinician): 61-90 m (Based on Week 1, None, Month 2): 2
- Blood Pressure (clinician): % >60 m (Based on Week 1, None, Month 2): 11.8%
- Blood Pressure (clinician): TOTAL (Based on Week 1, None, Month 2): 17
- Blood Pressure (clinician): n >60 m (Based on Week 1, None, Month 2): 2
- Blood Pressure (clinician): 31-60 m [1]: 13
- Blood Pressure (clinician): 61-90 m [1]: 1
- Blood Pressure (clinician): % >60 m [1]: 5.9%
- Blood Pressure (clinician): TOTAL [1]: 17
- Blood Pressure (clinician): n >60 m [1]: 1
- Blood Pressure (clinician): 31-60 m [2]: 8
- Blood Pressure (clinician): 61-90 m [2]: 1
- Blood Pressure (clinician): % >60 m [2]: 10%
- Blood Pressure (clinician): TOTAL [2]: 10
- Blood Pressure (clinician): n >60 m [2]: 1
- Blood Pressure (clinician): 31-60 m [3]: 20
- Blood Pressure (clinician): 61-90 m [3]: 1
- Blood Pressure (clinician): % >60 m [3]: 4.8%
- Blood Pressure (clinician): TOTAL [3]: 21
- Blood Pressure (clinician): n >60 m [3]: 1
- Blood Pressure (clinician): 31-60 m (Based on Week 1, Once, Month 2): 9
- Blood Pressure (clinician): % >60 m (Based on Week 1, Once, Month 2): 0%
- Blood Pressure (clinician): TOTAL (Based on Week 1, Once, Month 2): 9
- Blood Pressure (clinician): n >60 m (Based on Week 1, Once, Month 2): 0
- Blood Pressure (clinician): 31-60 m [4]: 4
- Blood Pressure (clinician): % >60 m [4]: 0%
- Blood Pressure (clinician): TOTAL [4]: 4
- Blood Pressure (clinician): n >60 m [4]: 0
- Blood Pressure (clinician): 31-60 m [5]: 1
- Blood Pressure (clinician): % >60 m [5]: 0%
- Blood Pressure (clinician): TOTAL [5]: 1
- Blood Pressure (clinician): n >60 m [5]: 0
- Blood Pressure (clinician): 0-30 m [6]: 1
- Blood Pressure (clinician): 31-60 m [6]: 11
- Blood Pressure (clinician): 61-90 m [6]: 1
- Blood Pressure (clinician): % >60 m [6]: 7.7%
- Blood Pressure (clinician): TOTAL [6]: 13
- Blood Pressure (clinician): n >60 m [6]: 1
- Blood Pressure (clinician): 31-60 m [7]: 10
- Blood Pressure (clinician): % >60 m [7]: 0%
- Blood Pressure (clinician): TOTAL [7]: 10
- Blood Pressure (clinician): n >60 m [7]: 0
- Blood Pressure (clinician): 31-60 m [8]: 3
- Blood Pressure (clinician): 61-90 m [8]: 1
- Blood Pressure (clinician): % >60 m [8]: 25%
- Blood Pressure (clinician): TOTAL [8]: 4
- Blood Pressure (clinician): n >60 m [8]: 1
- Blood Pressure (clinician): 31-60 m [9]: 2
- Blood Pressure (clinician): % >60 m [9]: 0%
- Blood Pressure (clinician): TOTAL [9]: 2
- Blood Pressure (clinician): n >60 m [9]: 0
- Blood Pressure (clinician): 31-60 m [10]: 12
- Blood Pressure (clinician): 61-90 m [10]: 1
- Blood Pressure (clinician): % >60 m [10]: 14.2%
- Blood Pressure (clinician): >90 m [10]: 1
- Blood Pressure (clinician): TOTAL [10]: 14
- Blood Pressure (clinician): n >60 m [10]: 2
- Dissociation (clinician), % >60 m [11]: 0%
- Dizziness, % >60 m [11]: 3.7%
- Sedation, % >60 m [11]: 0%
- Vertigo, % >60 m [11]: 4.2%
- Dissociation (clinician), % >60 m [12]: 2.8%
- Dizziness, % >60 m [12]: 2.9%
- Sedation, % >60 m [12]: 11.8%
- Vertigo, % >60 m [12]: 16.7%
- Dissociation (clinician), % >60 m [13]: 4.5%
- Dizziness, % >60 m [13]: 0%
- Sedation, % >60 m [13]: 0%
- Vertigo, % >60 m [13]: 11.1%
- Dissociation (clinician), % >60 m [14]: 0%
- Dizziness, % >60 m [14]: 4.3%
- Sedation, % >60 m [14]: 15.8%
- Vertigo, % >60 m [14]: 11.1%
- Dissociation (clinician), % >60 m [15]: 4%
- Dizziness, % >60 m [15]: 6.1%
- Sedation, % >60 m [15]: 0%
- Vertigo, % >60 m [15]: 15.8%
- Dissociation (clinician), % >60 m [16]: 0%
- Dizziness, % >60 m [16]: 0%
- Sedation, % >60 m [16]: 0%
- Sedation, patients by time to onset [16]: 0
- Vertigo, % >60 m [16]: 16.7%
- Dissociation (clinician), % >60 m [17]: 0%
- Dizziness, % >60 m [17]: 0%
- Sedation, % >60 m [17]: 0%
- Sedation, patients by time to onset [17]: 0
- Vertigo, % >60 m [17]: 0%
- Dissociation (clinician), % >60 m [18]: 7.3%
- Dizziness, % >60 m [18]: 5.4%
- Sedation, % >60 m [18]: 57.1%
- Vertigo, % >60 m [18]: 10.3%
- Dissociation (clinician), % >60 m [19]: 0%
- Dizziness, % >60 m [19]: 5.5%
- Sedation, % >60 m [19]: 0%
- Vertigo, % >60 m [19]: 0%
- Dissociation (clinician), % >60 m [20]: 3%
- Dizziness, % >60 m [20]: 2.9%
- Sedation, % >60 m [20]: 0%
- Vertigo, % >60 m [20]: 4%
- Dissociation (clinician), % >60 m [21]: 0%
- Dizziness, % >60 m [21]: 7.1%
- Sedation, % >60 m [21]: 0%
- Vertigo, % >60 m [21]: 0%
- Dissociation (clinician), % >60 m [22]: 6.3%
- Dizziness, % >60 m [22]: 7.9%
- Sedation, % >60 m [22]: 16.7%
- Vertigo, % >60 m [22]: 4.6%
- Blood Pressure (clinician): 0-30 m (Based on Week 4, None, Month 2): 1
- Blood Pressure (clinician): 31-60 m (Based on Week 4, None, Month 2): 13
- Blood Pressure (clinician): 61-90 m (Based on Week 4, None, Month 2): 2
- Blood Pressure (clinician): % >60 m (Based on Week 4, None, Month 2): 11.1%
- Blood Pressure (clinician): TOTAL (Based on Week 4, None, Month 2): 18
- Blood Pressure (clinician): n >60 m (Based on Week 4, None, Month 2): 2
- Blood Pressure (clinician): 31-60 m [23]: 13
- Blood Pressure (clinician): 61-90 m [23]: 1
- Blood Pressure (clinician): % >60 m [23]: 5.9%
- Blood Pressure (clinician): TOTAL [23]: 17
